Tests used:
ALOMY [1] = assay: Pre-emergence herbicidal action against ALOMY; assay type: in vivo, Alopecurus myosuroides; settings: scored visually after about 3 weeks vs untreated controls, 100% = plants have died, 0% = like control plants
Text: (§1) Seeds of mono- and dicotyledonous weed plants are placed in plastic pots in sandy loam soil (doubly sown with one species each of mono- or dicotyledonous weed plants per pot) and covered with soil. The compounds of the invention, formulated in the form of wettable powders (WP) or as emulsion concentrates (EC), are then applied onto the surface of the covering soil as aqueous suspension or emulsion with addition of 0.5% additive at a water application rate equivalent to 600 litres per hectare. After the treatment, the pots are placed in a greenhouse and kept under good growth conditions for the trial plants. After about 3 weeks, the effect of the preparations is scored visually in comparison with untreated controls as percentages. For example, 100% activity=the plants have died, 0% activity=like control plants. [table] Tables 4.1-4.15 below show the effects of selected compounds of the general formula (I) according to Tables 1 to 3 on various harmful plants at an application rate corresponding to 1280 or 320 g/ha, which have been obtained by the aforementioned experimental method.

CYPES = assay: Pre-emergence herbicidal action against CYPES; assay type: in vivo, Cyperus esculentus; settings: scored visually after about 3 weeks vs untreated controls, 100% = plants have died, 0% = like control plants
In short: (§2)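 Scoring is visual, in percent relative to untreated pots, roughly 3 weeks after soil-surface application. Rates were 1280 or 320 g/ha, delivered as WP or EC preparations with 0.5% additive in 600 L/ha water onto freshly sown, covered sandy loam.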

ECHCG [2] = assay: Pre-emergence herbicidal action against ECHCG; assay type: in vivo, Echinochloa crus-galli; settings: scored visually after about 3 weeks vs untreated controls, 100% = plants have died, 0% = like control plants
In short: as §2

SETVI [3] = assay: Pre-emergence herbicidal action against SETVI; assay type: in vivo, Setaria viridis; settings: 1280 g/ha, scored visually after about 3 weeks vs untreated controls
In short: as §2

AMARE [4] = assay: Pre-emergence herbicidal action against AMARE; assay type: in vivo, Amaranthus retroflexus; settings: scored visually after about 3 weeks vs untreated controls; for Pre-emergence action at 320 g/ha against AMARE in %: 100% = plants have died, 0% = like control plants; for Pre-emergence action against AMARE in %: 1280 g/ha
In short: as §2

MATIN [5] = assay: Pre-emergence herbicidal action against MATIN; assay type: in vivo, Matricaria inodora; settings: 1280 g/ha, scored visually after about 3 weeks vs untreated controls
In short: as §2

AVEFA = assay: Pre-emergence herbicidal action against AVEFA; assay type: in vivo, Avena fatua; settings: scored visually after about 3 weeks vs untreated controls, 100% = plants have died, 0% = like control plants
Text: as §1

STEME [6] = assay: Pre-emergence herbicidal action against STEME; assay type: in vivo, Stellaria media; settings: scored visually after about 3 weeks vs untreated controls
In short: as §2

VIOTR [7] = assay: Pre-emergence herbicidal action against VIOTR; assay type: in vivo, Viola tricolor; settings: 1280 g/ha, scored visually after about 3 weeks vs untreated controls
In short: as §2

ALOMY [8] = assay: Post-emergence herbicidal action against ALOMY; assay type: in vivo, Alopecurus myosuroides; settings: 1280 g/ha, post-emergence at one-leaf stage, rated visually after about 3 weeks vs untreated controls
In short: (§3)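 Weeds grown in sandy loam under greenhouse conditions were sprayed at the one-leaf stage, 2-3 weeks after sowing. Compounds were applied as WP or EC formulations in water with 0.5% additive at 600 L/ha, at 1280 or 320 g/ha. Activity was rated visually about 3 weeks later against untreated controls (0-100%).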

ECHCG [9] = assay: Post-emergence herbicidal action against ECHCG; assay type: in vivo, Echinochloa crus-galli; settings: 1280 g/ha, post-emergence at one-leaf stage, rated visually after about 3 weeks vs untreated controls
In short: as §3

LOLRI = assay: Post-emergence herbicidal action against LOLRI; assay type: in vivo, Lolium rigidum; settings: 1280 g/ha, post-emergence at one-leaf stage, rated visually after about 3 weeks vs untreated controls
Description: (§4) [table] Seeds of mono- and dicotyledonous weed plants are placed in plastic pots in sandy loam soil (twin sowing with one species each of mono- or dicotyledonous weed plants per pot), covered with soil and cultivated in a greenhouse under controlled growth conditions. 2 to 3 weeks after sowing, the test plants are treated at the one-leaf stage. The compounds of the invention, formulated in the form of wettable powders (WP) or as emulsion concentrates (EC), are applied to the green parts of the plants as aqueous suspension or emulsion with addition of 0.5% additive at a water application rate equivalent to 600 litres per hectare. After the test plants have been kept in the greenhouse under optimum growth conditions for about 3 weeks, the activity of the preparations is rated visually in comparison to untreated controls. For example, 100% activity=the plants have died, 0% activity=like control plants. Tables 5.1-5.16 below show the effects of selected compounds of the general formula (I) according to Tables 1 to 3 on various harmful plants at an application rate corresponding to 1280 or 320 g/ha, which have been obtained by the aforementioned experimental method.

MATIN [10] = assay: Post-emergence herbicidal action against MATIN; assay type: in vivo, Matricaria inodora; settings: visual rating about 3 weeks after treatment
In short: as §3

STEME [11] = assay: Post-emergence herbicidal action against STEME; assay type: in vivo, Stellaria media; settings: visual rating about 3 weeks after treatment
In short: as §3

VIOTR [12] = assay: Post-emergence herbicidal action against VIOTR; assay type: in vivo, Viola tricolor; settings: 320 g/ha, visual rating about 3 weeks after treatment
In short: as §3

HORMU [13] = assay: Post-emergence herbicidal action against HORMU; assay type: in vivo, Hordeum murinum; settings: 320 g/ha, visual rating about 3 weeks after treatment
Description: as §4

harmful plants = assay: Pre-emergence herbicidal action, summary of Tables 4.1-4.15; assay type: in vivo; settings: result in words
In short: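 Percent herbicidal action (100% = plants dead, 0% = like controls) was assessed visually about 3 weeks after treatment. Application rates of 1280 or 320 g/ha were applied to the covering soil of freshly sown sandy-loam pots, in 600 l/ha water with 0.5% additive, before emergence.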

POLCO [14] = assay: Pre-emergence herbicidal action against POLCO; assay type: in vivo, Polygonum convolvulus; settings: 320 g/ha, scored visually after about 3 weeks vs untreated controls
In short: as §2

VERPE [15] = assay: Pre-emergence herbicidal action against VERPE; assay type: in vivo, Veronica persica; settings: 320 g/ha, scored visually after about 3 weeks vs untreated controls
In short: as §2

HORMU [16] = assay: Pre-emergence herbicidal action against HORMU; assay type: in vivo, Hordeum murinum; settings: 320 g/ha, scored visually after about 3 weeks vs untreated controls
Text: as §1

SETVI [17] = assay: Post-emergence herbicidal action against SETVI; assay type: in vivo, Setaria viridis; settings: 1280 g/ha, post-emergence at one-leaf stage, rated visually after about 3 weeks vs untreated controls
In short: as §3

AMARE [18] = assay: Post-emergence herbicidal action against AMARE; assay type: in vivo, Amaranthus retroflexus; settings: visual rating about 3 weeks after treatment
In short: as §3

PHBPU = assay: Post-emergence herbicidal action against PHBPU; assay type: in vivo, Pharbitis purpurea; settings: 320 g/ha, visual rating about 3 weeks after treatment
In short: as §3

POLCO [19] = assay: Post-emergence herbicidal action against POLCO; assay type: in vivo, Polygonum convolvulus; settings: 320 g/ha, visual rating about 3 weeks after treatment
In short: as §3

VERPE [20] = assay: Post-emergence herbicidal action against VERPE; assay type: in vivo, Veronica persica; settings: 320 g/ha, visual rating about 3 weeks after treatment
In short: as §3

COC(=O)C(C)Oc1nn(-c2cccc(F)c2)c(-c2cccc(F)c2)c1C#N (centres unmarked) [I-067]
good herbicidal efficacy: herbicidal efficacy against harmful plants in the case of pre-emergence treatment (harmful plants)
90%: Pre-emergence action at 1280 g/ha against ALOMY in % (ALOMY [1]) | Pre-emergence action at 1280 g/ha against CYPES in % (CYPES) | Pre-emergence action at 320 g/ha against AMARE in % (AMARE [4]) | Pre-emergence action against MATIN in % (MATIN [5]) | Pre-emergence action against STEME in % (STEME [6]; 1280 g/ha) | Post-emergence action against ECHCG in % (ECHCG [9]) | Post-emergence action against LOLRI in % (LOLRI) | Post-emergence action against STEME in % (STEME [11]; 1280 g/ha)
80%: Pre-emergence action at 1280 g/ha against ECHCG in % (ECHCG [2]) | Pre-emergence action at 1280 g/ha against AVEFA in % (AVEFA) | Post-emergence action against MATIN in % (MATIN [10]; 1280 g/ha) | Post-emergence action against STEME in % (STEME [11]; 320 g/ha) | Post-emergence action against VIOTR in % (VIOTR [12]) | Post-emergence action against HORMU in % (HORMU [13])
100%: Pre-emergence action against SETVI in % (SETVI [3]) | Pre-emergence action against AMARE in % (AMARE [4]) | Pre-emergence action against VIOTR in % (VIOTR [7]) | Post-emergence action against ALOMY in % (ALOMY [8])

COC(=O)[C@@H](C)Oc1nn(-c2cccc(F)c2)c(-c2cccc(F)c2)c1C#N [I-125]
90%: Pre-emergence action against STEME in % (STEME [6]; 320 g/ha) | Pre-emergence action against VERPE in % (VERPE [15]) | Pre-emergence action against HORMU in % (HORMU [16]) | Post-emergence action against ECHCG in % (ECHCG [9]) | Post-emergence action against SETVI in % (SETVI [17]) | Post-emergence action against AMARE in % (AMARE [18]; 320 g/ha) | Post-emergence action against AMARE in % (AMARE [18]; 1280 g/ha) | Post-emergence action against MATIN in % (MATIN [10]; 1280 g/ha) | Post-emergence action against STEME in % (STEME [11]; 1280 g/ha) | Post-emergence action against VIOTR in % (VIOTR [12]) | Post-emergence action against HORMU in % (HORMU [13])
100%: Pre-emergence action at 1280 g/ha against ECHCG in % (ECHCG [2]) | Pre-emergence action against SETVI in % (SETVI [3]) | Pre-emergence action at 320 g/ha against AMARE in % (AMARE [4]) | Pre-emergence action against AMARE in % (AMARE [4]) | Pre-emergence action against POLCO in % (POLCO [14]) | Pre-emergence action against STEME in % (STEME [6]; 1280 g/ha)
80%: Post-emergence action against MATIN in % (MATIN [10]; 320 g/ha) | Post-emergence action against PHBPU in % (PHBPU) | Post-emergence action against POLCO in % (POLCO [19]) | Post-emergence action against VERPE in % (VERPE [20])
good herbicidal efficacy: herbicidal efficacy against harmful plants in the case of pre-emergence treatment (harmful plants)

COC(=O)[C@@H](C)Oc1nn(-c2ccccc2)c(-c2ccc(F)cc2)c1C#N [I-130]
80%: Post-emergence action against HORMU in % (HORMU [13])
100%: Pre-emergence action at 1280 g/ha against ECHCG in % (ECHCG [2]) | Pre-emergence action against SETVI in % (SETVI [3]) | Pre-emergence action at 320 g/ha against AMARE in % (AMARE [4]) | Pre-emergence action against AMARE in % (AMARE [4]) | Pre-emergence action against STEME in % (STEME [6]; 1280 g/ha) | Pre-emergence action against VERPE in % (VERPE [15]) | Pre-emergence action against HORMU in % (HORMU [16]) | Post-emergence action against ECHCG in % (ECHCG [9]) | Post-emergence action against STEME in % (STEME [11]; 1280 g/ha)
90%: Pre-emergence action against POLCO in % (POLCO [14]) | Pre-emergence action against STEME in % (STEME [6]; 320 g/ha) | Post-emergence action against LOLRI in % (LOLRI) | Post-emergence action against AMARE in % (AMARE [18]; 320 g/ha) | Post-emergence action against AMARE in % (AMARE [18]; 1280 g/ha) | Post-emergence action against MATIN in % (MATIN [10]; 320 g/ha) | Post-emergence action against MATIN in % (MATIN [10]; 1280 g/ha) | Post-emergence action against POLCO in % (POLCO [19]) | Post-emergence action against STEME in % (STEME [11]; 320 g/ha) | Post-emergence action against VIOTR in % (VIOTR [12]) | Post-emergence action against VERPE in % (VERPE [20])
